These results are taken from patent US20250108064A1, “PHOSPHATE PRODRUGS OF CANNABINOIDS” (priority 2021, published 2025).

Data set [1] in a line: physchem. As to conditions: aqueous buffer, kinetic from dmso stock; nephelometry, PBS pH 7.0-7.3, 1% DMSO, 25° C., 90 min. It counts as physicochemical. The procedure, abridged: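 DMSO stocks of 10-50 mM were serially diluted and then diluted into DPBS (pH 7.0-7.3) to 1% final DMSO. After shaking for 90 min at 25° C, light scattering was read by nephelometry.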
Data set [2] is described as follows: Simulated Gastric Fluid stability assay. Type of data set: in vitro ADME. As to conditions: simulated gastric fluid (SGF) with pepsin, pH 1.2; SGF pH about 1.2 with pepsin, 37° C.; read-out: T½ in SGF (converted). Here is the method:
General Experimental: Simulated Gastric Fluid (SGF) is a pH 1.2 HCl solution with purified pepsin (800-2500 units of activity) (Test Solutions, The United States Pharmacopoeia (USP), 2008). SGF was prepared according to a procedure described in Test Solution—USP and other published articles (Bioorganic Chemistry, 49 (2013), 40-48). Sodium chloride 0.20 g and purified pepsin 0.32 g (Sigma), derived from porcine stomach mucosa with an activity of 800 to 2500 units per mg of protein, were dissolved in 0.70 mL hydrochloric acid and sufficient water to make 100 mL. […] The SGF solution prepared was used for in vitro studies to evaluate the prodrug stability.
At specified time intervals, aliquots (100 μL) were withdrawn and added to pre-cooled 100% acetonitrile (200 μL spiked with ISTD) and mixed well by vortex mixing for 2 min. The mixture was centrifuged at 13000 rpm for 15 min at 4° C.

Data set [3] can be described thus: Plasma stability assay (human plasma). It counts as in vitro ADME. As to conditions: 37° C., read-out: T½ in human plasma (converted).
A short description of data set [4]: Brain homogenate stability assay. Type of data set: in vitro ADME. The following applies: mouse brain homogenate, 37° C. An excerpt:
General Experimental: Purchases were made for DPBS (1X) (Gibco) and Pierce BCA Assay kit for protein quantification (Thermo Fischer). Frozen mouse brain homogenate was provided by Dr. Scott Myers at Emory University School of Medicine (C57BL/6J adult male mice (Jackson Laboratory), 239 days (34 weeks) old). Briefly, each mouse was euthanized via isoflurane overdose and immediately upon cessation of breathing the chest cavity was opened and the left ventricle punctured with a 21G needle, the vena cava was then clipped and the body perfused with cold PBS (pH 7.35) for 2 min. Following, the brain was removed (on ice) and the forebrain separated from the cerebellum. The forebrain wet weight was recorded and placed into 3 mL ice cold HBSS (Hank's Balanced Salt Solution, pH 7.4), and then homogenized for 10 secs at 3/4 max setting. […] The amount of protein in the mouse brain homogenate was quantified using the Pierce BCA assay kit before running the stability assay.
Procedure for Brain Homogenate Stability Assay: 10 mM stock solution was prepared in 100% DMSO for each test compound. […] The supernatant was transferred into the HPLC vials, and measured by LC-MS/MS. Half-life (T1/2) was calculated using the data obtained from LC-MS/MS and by plotting ln (% remaining of the parent prodrug) versus time and performing linear regression to determine slope. […]

A word on the solubility: it is the concentration that dissolves in the medium under given conditions. Low values mean little dissolved substance, high ones much dissolved substance.

The structures appear in SMILES notation. Where only a bound is given, the exact number is not on record here.

Regarding `C=C(C)[C@@H]1CCC(C)=C[C@H]1c1c(O)cc(CCCCC)cc1OC(=O)C1(OP(=O)(O)O)CC1.N.N` [7b, 1-((((1′R,2′R)-6-hydroxy-5′-methyl-4-pentyl-2′-(prop-1-en-2-yl)-1′,2′,3′,4′-tetrahydro-[1,1′-biphenyl]-2-yl)oxy)carbonyl)cyclopropyl phosphate di-ammonium salt], the solubility in data set [1] is more than 500 µM. In addition, the half-life at 2 mM in data set [2] is more than 3 h. Further, the half-life in data set [3] was 5.3 h. In data set [4], the “brain homogenate stability (metabolism and metabolite formation)” value was “metabolism of compound 7b and formation of CBD”.
